In patent US20140171371A1, “Compositions And Methods For The Diagnosis of Schizophrenia” (The Trustees of Columbia University in the City of New York, priority 2011, published 2014):

Test system: lymphoblastoid cell lines
Assay: Cyclic AMP accumulation in lymphoblastoid cell lines in response to another GPCR agonist (specificity control)
Format: cell-based, human
Conditions: PGE2 1 μM + forskolin 10 μM, IBMX 200 μM pre-incubation, 10 min, fold-change over forskolin/IBMX alone
Procedure: Reactions were terminated by pelleting the cells, aspiration of the medium and addition of 100 μl of cold 7.5% (wt/vol) trichloroacetic acid (TCA). Cyclic AMP content in TCA extracts was determined by radioimmunoassay and normalized to the number of cells per well. […] Results presented for each subject represents the mean and standard error of at least ten replicates. Standard error and P-values for pooled results were computed across individuals (FIG. 3).

Compound: CCCCC[C@H](O)/C=C/[C@H]1[C@H](O)CC(=O)[C@@H]1C/C=C\CCCC(=O)O [prostaglandin E2]
- cAMP accumulation in response to agonist, 7q36.3 duplication carriers compared to controls: no group difference
- cAMP accumulation in response to agonist, 7q36.3 duplication carriers compared to controls (listed as PGE2): No difference
- cAMP accumulation in response to agonist, 7q36.3 duplication carriers compared to controls (listed as Prostaglandin E2): No significant differences
